Test results from patent publication EP0576227A2, “2'-Deoxy-2',2'-difluoro(2,6,8-substituted) purine nucleosides having anti-viral and anti-cancer activity and intermediates” (ELI LILLY AND COMPANY, priority 1992, dated 1993).
Converted amounts (≈) assume the structure as drawn.

Tests used:
[1] = system: human leukemia cells (CCRF-CEM cell line); experiment: Growth inhibition of human leukemia cells (CCRF-CEM cytotoxicity screen); assay type: cell-based; settings: concentration giving 50 percent growth inhibition; CCRF-CEM cell line
From the text: In another aspect, the invention provides a method of treating susceptible neoplasms in mammals comprising administering to a mammal in need of such treatment a pharmaceutically effective amount of a compound of formula (I). […] The treatment contemplated by the present method includes both medical therapeutic and prophylactic treatment, as appropriate. The specific dosage level of the compound administered according to this invention will, of course, be determined by the circumstances surrounding the case, including, for example, the particular compound administered, the route of administration, and the condition being treated. The compounds are effectively administered orally, topically, or parenterally. […] The representative compounds of formula (I) employed in the present invention are cytotoxic as they inhibit the growth of rapidly dividing human leukemia cells (CCRF-CEM cell line). Table 1 below gives the results of testing several compounds representative of formula (I).

[2] = system: Human Cytomegalovirus (HCMV) strain AD169; experiment: Human Cytomegalovirus Test (plaque inhibition in WI-38 cells); assay type: cell-based; settings: read-out: Percent Plaque Inhibition at Specified µg/ml conc.
Procedure: WI-38 cells (American Type Culture Collection; CCL-35) were seeded into 24-well plates in MEM media (GIBCO) supplemented with 10% fetal bovine serum and penicillin/streptomycin. The plates wre incbated at 37°C, in 5 percent carbon dioxide in a humidified incubator for 3 days. Human Cytomegalovirus (HCMV) strain AD169 (American Type Culture Collection) was added to each well (40 plaque forming unites in 100 µl of media) and the virus was allowed to adsorb to the cells for 2 hours at room temperature. The compound of Example 5 was dissolved in 100 percent dimethylsulfoxide at a concentration of 20 mgs/ml and diluted with media to yield final concentrations of 50, 25, 12.5, 6.25, 3.13, 1.6, 0.8, 0.4, 0.2, and 0.1 µg/ml in one set of experiments and 32, 10, 3.2, 1, and 0.32 µg/ml in another set of experiments. Each concentration was done in duplicate. In all experiments, Cytovene (DHPG) was used as a positive control.
The infected cells were incubated for 10 days at 37°C, 5 percent carbon dioxide, in an humidified incubator without changes of media. After incubation, the cells were fixed for at least 15 minutes with 10 percent formalin and rinsed with water. After rinsing, the cells were stained for at least 15 minutes with crystal violet and allowed to dry. HCMV induced plaques were counted with the aid of an iverted microscope. The number of viral plaques appearing in cells treated with each concentration of the Example 5 compound was compared to the number of viral plaques in cells left untreated ("no-drug control") and the percent inhibition of viral plaque formation was calculated. The concentration of the Example 5 compound required to inhibit viral plaque formation by 50 percent was determined using linear regression analysis.

[3] = system: HC1 human colon carcinoma; experiment: HC1 human colon carcinoma xenograft in mice, tumor weight inhibition; assay type: in vivo, Nu/Nu CD-1 mice; settings: Intra-Peritoneal 0.5 ml, Daily X 10
From the text: The HC1 human colon carcinoma xenograft was obtained in 1987 from Drs. Peter and Janet Houghton, St. Jude Children's Hospital, Memphis, TN. The tumor is a moderately well-differentiated adenocarcinoma of the ascending colon [British Journal of Cancer, 37, p 213-223 (1987)]. The first passage tumor was stored in liquid nitrogen using standard techniques. The tumors were maintained in serial passage Nu/Nu CD-1 mice (Charles River Laboratories, Portage, MI.).
The study testing the efficacy of these compounds against HC1 human colon carcinoma was initiated by removing a tumor from passage animals and mincing it into 1 to 3 mm square fragments using sterile techniques. Tumor pieces were checked for sterility using both an Antibiotic Medium 1 and Brain Heart Infusion (Difco; Detroit, MI). Tumor pieces were implanted subcutaneously in the auxilary region of recipient mice by trocar. Drug therapy on the appropriate schedule was initiated 14 days after tumor implantation. Drugs were dissolved in Emulphor for all experiments. All animals were weighed at the beginning and end of drug treatment. Food and water were provided ad libitum. On day 14 after the initiation of therapy, two dimensional measurements (width and length) of all tumors were taken using electronic calipers interfaced to a computer. Tumor weights were calculated from these measurements using the following formula: Tumor Weight (mg) = Tumor Length (mm) X Tumor Width (mm)²/2
For all data, the tumor weight was rounded to the nearest tenth of a gram for analysis. No group is included in the analysis for therapeutic activity in which deaths attributable to drug toxicity exceeded 20 percent of the treated group. Compounds are considered active if more than 60 percent inhibition of tumor growth, as determined by tumor weight, is achieved at maximally tolerated doses.
In Table 2 which follows, Column 1 gives the example number of the compound tested; Column 2, the dose level; Column 3, the route administered; Column 4, the dosage schedule; Column 5, the percent inhibition of the tumor; and Column 6; the toxic deaths observed prior to completion of the study.

For `Nc1nc(S)c2ncn([C@@H]3O[C@H](CO)[C@@H](O)C3(F)F)c2n1` [(h), 2-deoxy-2,2-difluoro-D-ribofuranosyl-1-β-(2-amino-6-thiopurine)], the “IC50” value [1] was 4.3 µg/mL (≈ 13.5 µM).

`Nc1nc2c(ncn2COC(CO)CO)c(=O)[nH]1` [Cytovene] showed an inhibition at 0.2 µg/mL ([2]; Human betaherpesvirus 5, AD169, 240 h, 0.2 µg/ml, WI-38 cells, 10 days) of 31%, an inhibition at 0.4 µg/mL ([2]; Human betaherpesvirus 5, AD169, 240 h, 0.4 µg/ml, WI-38 cells, 10 days) of 31% and an inhibition at 0.8 µg/mL ([2]; Human betaherpesvirus 5, AD169, 240 h, 0.8 µg/ml, WI-38 cells, 10 days) of 40%. For the same compound, the inhibition at 1.6 µg/mL ([2]; Human betaherpesvirus 5, AD169, 240 h, 1.6 µg/ml, WI-38 cells, 10 days) was 65.5%, the inhibition at 6.25 µg/mL ([2]; Human betaherpesvirus 5, AD169, 240 h, 6.25 µg/ml, WI-38 cells, 10 days) was 98% and the inhibition at 12.5 µg/mL ([2]; Human betaherpesvirus 5, AD169, 240 h, 12.5 µg/ml, WI-38 cells, 10 days) was 100%. It also gave an inhibition at 25 µg/mL ([2]; Human betaherpesvirus 5, AD169, 240 h, 25 µg/ml, WI-38 cells, 10 days) of 100%, an inhibition at 50 µg/mL ([2]; Human betaherpesvirus 5, AD169, 240 h, 50 µg/ml, WI-38 cells, 10 days) of 100% and an inhibition at 3.12 µg/mL ([2]; Human betaherpesvirus 5, AD169, WI-38, 240 h) of 91%.

For `Nc1nc(Cl)c2ncn([C@@H]3O[C@H](CO)[C@@H](O)C3(F)F)c2n1` [Example 1, 2-deoxy-2,2-difluoro-D-ribofuranosyl-1-β-(2-amino-6-chloropurine)], the “IC50” value [1] was 0.007 µg/mL (≈ 0.0218 µM).

For `COc1nc(N)nc2c1ncn2[C@@H]1O[C@H](CO)[C@@H](O)C1(F)F` [Example 2, 2-deoxy-2,2-difluoro-D-ribofuranosyl-1-β-(2-amino-6-methoxypurine)], the “IC50” value [1] was 0.037 µg/mL (≈ 0.117 µM).

With `CCOc1nc(N)nc2c1ncn2[C@@H]1O[C@H](CO)[C@@H](O)C1(F)F` [Example 3, 2-deoxy-2,2-difluoro-D-ribofuranosyl-1-β-(2-amino-6-ethoxypurine)] the “Percent Inhibition of Tumor” value ([3]; 25 mg/kg) was 98%, the “Toxic Deaths” value ([3]; 25 mg/kg) was 0/10 and the “Percent Inhibition of Tumor” value ([3]; 50 mg/kg) was 97%. For the same compound, the “Toxic Deaths” value ([3]; 50 mg/kg) was 0/10, the “Percent Inhibition of Tumor” value ([3]; 100 mg/kg) was 98% and the “Toxic Deaths” value ([3]; 100 mg/kg) was 0/10. For the same compound, the “IC50” value [1] was 0.2 µg/mL (≈ 0.604 µM).

In the case of `CN(C)c1nc(N)nc2c1ncn2[C@@H]1O[C@H](CO)[C@@H](O)C1(F)F` [Example 4, 2-deoxy-2,2-difluoro-D-ribofuranosyl-1-β-(2-amino-6-dimethylaminopurine)], the “IC50” value [1] is reported as 4.6 µg/mL (≈ 13.9 µM).

For `Nc1nc(I)c2ncn([C@@H]3O[C@H](CO)[C@@H](O)C3(F)F)c2n1` [Example 6, 2-deoxy-2,2-difluoro-D-ribofuranosyl-1-β-(2-amino-6-iodopurine)], the “IC50” value [1] was 0.093 µg/mL (≈ 0.225 µM).

`N#Cc1nc(N)nc2c1ncn2[C@@H]1O[C@H](CO)[C@@H](O)C1(F)F` [Example 7, 2-deoxy-2,2-difluoro-D-ribofuranosyl-1-β-(2-amino-6-cyanopurine)] was tested, and the “IC50” value [1] was 2.5 µg/mL (≈ 8.01 µM).

In the case of `Nc1nc(O)nc2c1ncn2[C@@H]1O[C@H](CO)[C@@H](O)C1(F)F` [Example 9, 2-deoxy-2,2-difluoro-D-ribofuranosyl-1-β-(2-hydroxyadenosine)], the “IC50” value [1] is reported as 0.7 µg/mL (≈ 2.31 µM).

With `Nc1nc(F)nc2c1ncn2[C@@H]1O[C@H](CO)[C@@H](O)C1(F)F` [Example 10, 2-deoxy-2,2-difluoro-D-ribofuranosyl-1-β-(2-fluoroadenosine)] the “IC50” value [1] was 0.094 µg/mL (≈ 0.308 µM).

For `OC[C@H]1O[C@@H](n2cnc3cncnc32)C(F)(F)[C@@H]1O` [Example 11, 2-deoxy-2,2-difluoro-D-ribofuranosyl-1-β-purine], the “IC50” value [1] was 1.3 µg/mL (≈ 4.78 µM).

`Cc1nc(N)nc2c1ncn2[C@@H]1O[C@H](CO)[C@@H](O)C1(F)F` [Example 13, 2-deoxy-2,2-difluoro-D-ribofuranosyl-1-β-(2-amino-6-methylpurine)] was tested, and the “IC50” value [1] was 2.6 µg/mL (≈ 8.63 µM).
